Results from patent publication US8647865B2, “Promiscuous PAP CD4 T cell epitopes” (Dendreon Corporation, priority 2006, dated 2014).

Experiments:
Format in all cases: cell-based, human
[1] = system: CD4+ T-cell clone (PAPc66); assay: Peptide promiscuity assay: HLA-DRβ1 homozygous EBV-LcL lines present the peptide to PAPc66, IFNγ and granzyme B measured by ELISA
From the text: FIG. 3. PAP257-271 is a promiscuous MHC class II PAP epitope recognized by the T cell clone PAPc66. (A) The peptide, PAP257-271 (RLQGGVLVNNEILNHM; SEQ ID NO:1), recognized by a CD4+ T-cell clone (PAPc66) in the context of MHC class II, is capable of inducing T-cell activation when presented by lymphoblastoid cell lines representing 9 different HLA-DR serological families (β chain; DR1, DR4, DR7, DR8, DR11, DR12, DR13, DR14, DR15) having over 15 distinct HLA-DRβ1 alleles. […] The assay was set up in 96 well round bottom plates with PAPc66 at 1×10^5 cells/well, PAP257-271 at 2 μg/mL and 2×10^5 EBV-LcL per well in complete RPMI+10% FBS. Each HLA-DR[…]EBV-LcL line, homozygous for the HLA-DRβ1 allele shown, was tested for the ability to present PAP257-271 to PAPc66. An irrelevant PAP peptide and no peptide control were also included. After 48-hour incubation at 37° C. and 5% CO2, supernatants were tested for IFNγ and granzyme B (B) by ELISA. Results are shown with background (no peptide) for each EBV-LcL line and PAPc66 subtracted.
HLA-DRβ1 EBV-LcL lines were purchased from the European Collection of Cell Cultures originating from the 12th International Histocompatibility Workshop (IHW) held in Strasbourg, France. HLA-DR EBV-transformed lymphoblastoid cells were homozygous for the HLA-DRβ1 allele (Table I). EBV-LcL were also generated from various subject PBMC using supernatant from the B95-8 cell line (ATCC, Manassas, Va.) for the expansion and testing of autologous T cell clones.
All assays were set up in triplicate in 96-well round bottom plates with antigen or peptide in cRPMI 1640+10% FBS (Fetal Bovine Serum (Invitrogen, Carlsbad, Calif.)), T cell clones at 1×10^5 cells/well and antigen presenting cells at 2×10^5 cells/well. […]
(§1) IFN[…] production was measured using anti-human IFNγ antibody pairs for ELISA (BD Pharmingen, San Diego, Calif.). […] 2M HCl was added to stop the reaction and plates were read for absorbance at 492 nm on a spectrophotometer. […]

[2] = system: CD4+ T-cell clone (PAPc66); assay: MHC Class II blocking assay with autologous EBV-LcL, IFNγ ELISA; conditions: peptide at 2 μg/mL, 48 hours
Procedure: FIG. 2. PAPc661 is MHC class II restricted. PAPc66 was stimulated with autologous EBV-LcL at 2×10^5 cells/mL and PAP257-271 at 2 μg/mL in the presence of MHC Class II blocking antibodies. The assay was set up in 96 well round bottom plates in complete RPMI media +10% FBS with anti-HLA-DR ♦ (Dendreon) and anti-HLA-DP ▪ or anti HLA-DQ ▴ (Leinco Technologies, Inc., St. Louis, […].) at the concentrations shown. Anti-HLA-A2 antibody (∘) was used as a negative control. PAPc66 was added to all wells at 1×10^5 cells/well and the assay was incubated for 48 hours at 37° C. and 5% CO2. After the incubation, supernatants were harvested and tested for IFNγ by ELISA. IFNγ was not detected for conditions without peptide.
All assays were set up in triplicate in 96-well round bottom plates with antigen or peptide in cRPMI 1640+10% FBS (Fetal Bovine Serum (Invitrogen, Carlsbad, Calif.)), T cell clones at 1×10^5 cells/well and antigen presenting cells at 2×10^5 cells/well. Autologous EBV-LcL were used for antigen presenting cells in specificity assays and assays conducted to show peptide promiscuity using the HLA-DRB1 EBV-LcLs. All assays were incubated for 48 hours at 37° C. with 5% CO2. […]
as §1

[3] = system: CD4+ T-cell clone (PAPc66); assay: Antigen specificity of T cell clone PAPc66 with autologous EBV-LcL, IFNγ ELISA
Procedure: FIG. 1. T cell clone PAPc66 recognizes a naturally processed epitope from PAP. (A) PAP fusion proteins PA2024, CHOPA2024 and hPAPGM and PAP from a baculoviral expression system (iPAP) and mammalian expression system (CHOPAP) were titrated with autologous EBV-LcL and PAPc66. Assay was set up in 96 well round bottom plates with 1×10^5 cells/well of PAPc66, 2×10^5 cells/well EBV-LcL and antigens at 50 μg/mL (black bars), 25 μg/mL (stripe bars) and 12.5 μg/mL (dot bars) in complete RPMI media with 10% FBS. Assay was incubated for 48 hours at 37° C. with 5% CO2 at which time supernatants were harvested and tested for IFNγ by ELISA. (B) To map the specific PAP peptide, chemically synthesized peptides from the PAP sequence were used. These 94 peptides were 15 amino acids in length overlapping by 11 amino acids and were individually tested for the ability to stimulate PAPc66 using autologous EBV-LcL and each peptide at 2 μg/mL in the assay. The assay was set up as in (A) and supernatants were tested for IFNγ by ELISA. […] Supernatants were analyzed for peptide specific IFNγ production by ELISA. […]
as §1

RLQGGVLVNEILNHM (residues 257-271 of human prostatic acid phosphatase (PAP), PAP epitope 257-271, Peptide #65, PAP-257-271) [PAP257-271, peptide corresponding to residues 257-271 of the human PAP protein]
cytokine production by clone PAPc66 upon activation with the presented peptide ([1]; IFNγ and granzyme B ELISA of supernatants): produce IFNγ and granzyme B upon activation
number of distinct HLA-DRβ1 alleles presenting the peptide with T-cell activation ([1]; peptide at 2 μg/mL, 48 hours, EBV-LcL homozygous for the HLA-DRβ1 allele): over 15
number of different HLA-DR serological families whose lymphoblastoid cell lines present the peptide and induce T-cell activation ([1]; peptide at 2 μg/mL, 48 hours, PAPc66 1×10^5 cells/well, 2×10^5 EBV-LcL per well): 9
MHC class II restriction of presentation (blocking antibodies anti-HLA-DR, -DP, -DQ) [2]: presented both in the context of HLA-DR and HLA-DQ
nature of the epitope recognized by PAPc66 (summary of FIGS. 1-3) [3]: naturally processed, MHC class II-restricted promiscuous epitope
